{
  "source": "patent US20090318492A1",
  "about": "“INDOLE COMPOUNDS HAVING C4-ACIDIC SUBSTITUENTS AND USE THEREOF AS PHOSPHOLIPASE-A2 INHIBITORS” (priority 2005, published 2009)",
  "key": {"[1]": {"biological_target": "T1, Porcine group 1B phospholipase A2 (pps PLA2) (Sus scrofa, UniProt P00592)", "T1 construct": "purchased", "T1 sequence (P00592 23-146)": "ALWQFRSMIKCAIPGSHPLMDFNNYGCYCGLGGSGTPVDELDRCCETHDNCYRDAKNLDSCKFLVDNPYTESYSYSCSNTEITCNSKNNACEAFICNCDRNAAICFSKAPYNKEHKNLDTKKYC", "experiment": "Example 8 fluorimetric PLA2 inhibition assay (PPyrPM), porcine enzyme", "type": "biochemical", "description": "In this example, a fluorimetric assay procedure was used to evaluate the indole and indole-related compounds of the invention as inhibitors of group 1B phospholipase A2 (PLA2) from human, mouse and porcine. A description of this assay is found in articles: Leslie, C C and Gelb, M H (2004) Methods in Molecular Biology “Assaying phospholipase A2 activity”, 284:229-242; Singer, A G, et al. (2002) Journal of Biological Chemistry “Interfacial kinetic and binding properties of the complete set of human and mouse groups I, II, V, X, and XII secreted phospholipases A2”, 277:48535-48549, which are incorporated herein as references.\nIn general, this assay used a phosphatidylmethanol substrate with a pyrene fluorophore on the terminal end of the sn-2 fatty acyl chain. […] The effect of a given inhibitor and inhibitor concentration on human, mouse and porcine phospholipase was determined. […]\nThe following procedure was performed to evaluate the inhibitory potency of the evaluated compounds. • 1. […] The fluorescence was read using an excitation of 342 nm and an emission of 395 nm.\nEvaluated compounds were tested in duplicate and their values were averaged to plot the inhibition curve and calculate the IC50. […] The IC50 was calculated using the BioDataFit 1.02 (Four Parameter Model) software package. […]"}, "[2]": {"tested_on": "C57BL/6J mouse model of obesity", "experiment": "Example 10 mouse diet-induced obesity", "type": "in vivo", "conditions": "low fat control diet (D12328) with vs without test article", "description": "The high-fat diet-fed C57BL/6J mouse model of human diabetes, originally introduced by Surwit and colleagues (Surwit, R S, et al. (1988) “Diet-induced type […] diabetes in C57BL/6J mice”, Diabetes 37: 1163-1167) is a widely accepted, clinically relevant, polygenic model that induces obesity, dyslipidemia, glucose- and insulin-resistance as early as 3 weeks after commencing the high fat diet (Winzell, M S and Ahren, B (2004) “The high-fat diet-fed mouse: a model for studying mechanisms and treatment of impaired glucose tolerance and type 2 diabetes”, Diabetes 53 Suppl 3: S215-219). This model was used to investigate the effects of indole and indole-related Test Articles. Avandia (rosiglitazone) was used as a control Test Article. […]\nIn these studies and the accompanying figures, Diet D12328 from Research Diets is referred to as the “Low Fat” or Control diet/chow, while Diet D12331 from Research Diets is referred to as the “High Fat” diet. […] The Test Article content was calculated such that ad libitum consumption by the animals would deliver doses (in mg of Test Article per kg animal weight per day) approximating those listed in Table 5.\nAnimals were maintained on the diets for up to eleven weeks. Body weights were recorded weekly. […] The serum was analyzed for glucose, total cholesterol, triglycerides (TG) and lysophospholipid (LPC) content. […]"}, "[3]": {"experiment": "Example 14 toxicology, daily oral gavage for 5 consecutive days", "type": "in vivo", "conditions": "mice", "description": "The purpose of this study was to evaluate the toxicity of indole and indole-related Test Articles when administered daily via oral gavage to mice for 5 consecutive days.\nAssessment of toxicity was based on mortality; clinical signs, body weight, food consumption, clinical pathology, and macroscopic pathology data."}},
  "data": [
    {"smiles": "Cc1c(C(=O)C(N)=O)c2c(OCC(=O)NS(=O)(=O)CCCC(=O)O)cccc2n1Cc1ccccc1", "note": "[ILY-IV-40, 4-[2-(3-Aminooxalyl-1-benzyl-2-methyl-1H-indol-4-yloxy)-acetylsulfamoyl]-butyric acid]", "values": [
      {"measurement": "IC50", "setting": "[1]", "result": 1010, "unit": "nM"},
      {"measurement": "effect in animals fed a low fat control diet", "setting": "[2]", "result": "No or little effect"},
      {"measurement": "clinical pathology differences between vehicle control group and treated groups attributable to test article", "setting": "[3]", "result": "no differences"}
    ]}
  ]
}
